This note sets out measurements from EP0578726B1, “VIRUS INACTIVATION METHOD” (VEGATEC, priority 1991, dated 1992).

Structures are written as SMILES. Some results are limits rather than exact numbers.

Assay [1] deals with Herpès simplex virus II (HSVII). Briefly: Example I: inactivation of HSVII suspensions, detection in cell culture. It is filed as cell-based. The settings on record: 6,5 g/l of (III). Here is the method:
Herpès simplex virus II (HSVII) est entretenu en culture cellulaire et les suspensions virales obtenues ont une dose infectieuse 50% (DI50) à une dilution de 10⁻⁶.
Les suspensions virales sont mises en contact avec 6,5g/l de (III) pendant 1h, 2h, 4h à 30°C.
Des témoins positifs sont réalisés dans les mêmes conditions d'incubation sans addition de (III).
L'effet virucide de (III) est arrêté par dilution au 1/100e avec du milieu de culture sans virus. La concentration virale atteint alors 10⁴DI50 pour l'effet de dilution.

Assay [2] relates to Herpès Simplex Virus II (HSV II). Briefly: Example II: kinetics of HSV II inactivation, titration on receptor cells. It is filed as cell-based. The settings on record: after 15 minutes of contact, (III) 5 g/l final concentration. Here is the method:
Herpès Simplex Virus II (HSV II) de l'exemple 1 est incubé avec une solution de (III) à 5 g/l en concentration finale dans son milieu de culture.
Des prélèvements sont effectués à intervalles de temps 5, 10, 15, 30 et 60 minutes, puis titrés pour leur contenu en virus infectieux sur cellules réceptrices en culture.

Assay [3] concerns C 1 estérase. In words: Example VIII: inhibitory capacity of treated C 1 Inactivateur towards C 1 estérase. The settings on record: 6 h - 24°C, (III) at 6,5 g/l, % of inhibitory activity of purified C 1 Inactivateur without additive at To. Type of assay: biochemical. Here is the method:
La protéine a donc été traitée d'une part avec le procédé solvant-détergent, d'autre part avec (III) à une concentration finale de 6,5 g/l pendant 6 h à 24°C, dans le but d'obtenir l'inactivation des virus éventuellement présents dans la matière première.
Le tableau H montre l'influence du traitment d'inactivation virale sur les propriétés inhibitrices du C 1 Ina essayé sur trois enzymes : C 1 estérase, kallicréine, plasmine.
Le témoin est incubé 6 h à 24°C mais ne contient aucun additif inactivant.
L'activité inhibitrice est exprimée en % de l'activité inhibitrice du C 1 Inactivateur purifié sans additif et dosé à To.

On to `CCCCCCCNC(=O)OC[C@H]1O[C@H](OC)[C@H](O)[C@@H](O)[C@@H]1O` [(III), 6-O-(N-heptylcarbamoyl)méthyl-α-D-glucopyranoside], for which the “inactivation de HSVII” value in assay [1] (30°C, control titre 10⁴DI50) is recorded as not below 4 log. Moreover, the “activité virale de HSVII” value in assay [1] (contact 1h, 2h, 4h at 30°C, stopped by 1/100 dilution) was “Aucune activité virale de HSVII n'est détectée”; in assay [2], “Aucune activité virale de HSVII n'est détectée”. The “Activité anti C 1 estérase” value in assay [3] (essai n° 1) is 96,2%; in assay [3] (essai n° 2), 100%.
